Source: patent publication US9233921B2, “Potent poxvirus inhibitor” (priority 2013, dated 2016)
Entries after “also recorded” stand apart in the source; their conditions may differ. Read-outs that look alike come from different tables or passages of the source.

Key:
vaccinia virus = assay: microbe, parasite or virus in culture; type: cell-based, Vaccinia virus (WR strain)
mD4-VV hybrid virus = assay: microbe, parasite or virus in culture; type: cell-based; settings: read-out: IC50 mD4-VV hybrid virus
Cytotoxicity (CC50) = settings: African green monkey, BSC-1 cells
recombinant VACV (vL1Ri) = type: cell-based, vaccinia virus in BSC-1 cells
BSC-1 cells = assay: Cytotoxicity (CC50)
[1] = Table 5, mean ± SEM of triplicates

## Cc1ccc2c(Sc3cc(Cl)cc(Cl)c3)c(CCCC(N)=O)[nH]c2c1 [Compound 24c, 4-(3-((3,5-Dichlorophenyl)thio)-6-methyl-1H-indol-2-yl)butanamide]
Vaccinia virus
  SI (selectivity index = CC50/IC50): 115
  fold decrease in potency / loss of activity compared to 24a: ~5 fold
Vaccinia virus; Orthopoxvirus vaccinia
  IC50: 0.208 µM
mD4-VV hybrid virus
  IC50: 0.199 µM
Cytotoxicity (CC50)
  CC50: 243 ± 2 µM

## Nc1ccn(C[C@@H](CO)OCP(=O)(O)O)c(=O)n1 [CDV, cidofovir]
Recombinant VACV (vL1Ri)
  EGFP expression (late reporter gene): equally effective at a higher dose; also recorded: clearly showed suppression of EGFP when pretreated
Recombinant VACV (vL1Ri); 8 h
  EGFP expression, compound added after virus adsorption: comparable EGFP expression and CPE to DMSO vehicle; also recorded: EGFP expression comparable to vehicle-treatment

## CCCCCCNC(=O)CCc1[nH]c2cc(C)ccc2c1Sc1cc(Cl)cc(Cl)c1 [Compound 24e, 3-(3-((3,5-Dichlorophenyl)thio)-6-methyl-1H-indol-2-yl)-N-hexylpropanamide]
BSC-1 cells; [1]
  CC50: 27 ± 4 µM

## Cc1ccc2c(Sc3cc(Cl)cc(Cl)c3)c(CC(N)=O)[nH]c2c1 [Compound 24b, 2-(3-((3,5-Dichlorophenyl)thio)-6-methyl-1H-indol-2-yl)acetamide]
Vaccinia virus
  SI (selectivity index = CC50/IC50): 570
Vaccinia virus; Orthopoxvirus vaccinia
  IC50: 0.046 µM
mD4-VV hybrid virus
  IC50: 0.097 µM
BSC-1 cells; [1]
  CC50: 26 ± 3 µM

## 6-Methyl-3-(phenylthio)-1H-indole-2-carboxylate [Compound 29]
Vaccinia virus; read-out: IC50 (antiviral)
  IC50: 10 µM
BSC-1 cells; read-out: CC50 (cytotoxicity), BSC-1 cells, NA = not active (assays requiring >200 μM)
  CC50: 26 µM

## Cc1ccc2c(Sc3cc(Cl)cc(Cl)c3)c(CCC(=O)O)[nH]c2c1 [Compound 24d, 3-(3-((3,5-Dichlorophenyl)thio)-6-methyl-1H-indol-2-yl)propanoic acid]
Vaccinia virus
  SI (selectivity index = CC50/IC50): 152
  fold decrease in potency / loss of activity compared to 24a: ~5 fold
Vaccinia virus; Orthopoxvirus vaccinia
  IC50: 0.244 µM
BSC-1 cells; [1]
  CC50: 36 ± 14 µM

## Cc1ccc2c(Sc3cc(Cl)cc(Cl)c3)c(CCC(N)=O)[nH]c2c1 [Compound 24a, 3-(3-((3,5-Dichlorophenyl)thio)-6-methyl-1H-indol-2-yl)propanamide]
Vaccinia virus
  SI (selectivity index = CC50/IC50): 374
Vaccinia virus; Orthopoxvirus vaccinia
  IC50: 0.042 µM
mD4-VV hybrid virus
  IC50: 0.03 µM
BSC-1 cells; [1]
  CC50: 16 ± 5 µM
BSC-1 cells; cells treated 9 h, FIG. 7A
  cytotoxicity within experimental time frame: minimal cytotoxicity

## Cc1ccc2c(Sc3ccc(Cl)cc3Cl)c(C(=O)O)[nH]c2c1 [Compound 20, 3-((2,4-Dichlorophenyl)thio)-6-methyl-1H-indole-2-carboxylic acid]
Vaccinia virus
  fold activity improvement over the parent 1: 2-11 fold
Cytotoxicity (CC50)
  CC50: 129 µM
